Test results as given in article PMC11207571, “Applicability of MDR1 Overexpressing Abcb1KO-MDCKII Cell Lines for Investigating In Vitro Species Differences and Brain Penetration Prediction” (Pharmaceutics, 2024).

What was measured:
cynomolgus monkey Mdr1 [1] = molecular target: T1, cynomolgus monkey Mdr1 (Macaca fascicularis, UniProt Q8HZQ6); experiment: cell-based
human MDR1 [2] = molecular target: T2, human MDR1 (Homo sapiens, UniProt P08183); experiment: Inhibition of 3H-digoxin or 3H-quinidine bidirectional transport in hMDR1 cells; details: IC50 from ER
T2 sequence (P08183 whole entry): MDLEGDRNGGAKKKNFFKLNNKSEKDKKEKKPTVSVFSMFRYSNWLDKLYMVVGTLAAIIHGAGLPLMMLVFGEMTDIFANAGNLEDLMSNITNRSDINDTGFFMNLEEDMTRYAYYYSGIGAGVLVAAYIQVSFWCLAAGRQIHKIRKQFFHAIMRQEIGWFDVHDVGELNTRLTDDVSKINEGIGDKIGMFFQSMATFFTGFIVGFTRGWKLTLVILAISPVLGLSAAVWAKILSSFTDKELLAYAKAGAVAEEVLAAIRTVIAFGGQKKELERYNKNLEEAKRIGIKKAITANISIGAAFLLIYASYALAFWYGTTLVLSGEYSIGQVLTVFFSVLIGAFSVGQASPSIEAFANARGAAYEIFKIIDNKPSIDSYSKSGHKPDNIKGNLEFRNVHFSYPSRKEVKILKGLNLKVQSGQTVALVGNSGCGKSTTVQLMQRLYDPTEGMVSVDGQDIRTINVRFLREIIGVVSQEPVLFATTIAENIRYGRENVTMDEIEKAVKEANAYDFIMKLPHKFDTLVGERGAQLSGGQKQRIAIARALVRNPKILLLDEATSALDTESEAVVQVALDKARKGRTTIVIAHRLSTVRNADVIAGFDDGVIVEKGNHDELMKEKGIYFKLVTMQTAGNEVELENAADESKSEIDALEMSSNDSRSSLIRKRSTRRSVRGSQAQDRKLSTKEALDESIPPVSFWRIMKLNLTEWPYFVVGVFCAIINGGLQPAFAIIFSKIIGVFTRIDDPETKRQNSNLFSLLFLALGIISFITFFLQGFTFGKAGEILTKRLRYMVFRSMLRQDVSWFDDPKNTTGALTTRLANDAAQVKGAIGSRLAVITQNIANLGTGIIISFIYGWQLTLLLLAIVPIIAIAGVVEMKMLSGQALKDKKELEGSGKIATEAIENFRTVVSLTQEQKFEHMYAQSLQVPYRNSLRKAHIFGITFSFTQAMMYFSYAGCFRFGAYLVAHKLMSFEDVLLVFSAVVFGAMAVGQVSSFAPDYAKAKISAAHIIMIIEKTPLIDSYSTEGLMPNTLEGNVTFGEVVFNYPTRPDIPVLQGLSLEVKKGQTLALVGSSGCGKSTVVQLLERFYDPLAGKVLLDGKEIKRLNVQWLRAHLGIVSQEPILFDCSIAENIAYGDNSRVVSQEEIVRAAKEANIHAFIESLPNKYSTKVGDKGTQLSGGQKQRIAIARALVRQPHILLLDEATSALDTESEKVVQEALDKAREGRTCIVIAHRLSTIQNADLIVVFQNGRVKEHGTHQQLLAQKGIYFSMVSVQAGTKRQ

cynomolgus monkey Mdr1 [3] = molecular target: T1, cynomolgus monkey Mdr1; experiment: Inhibition of 3H-digoxin or 3H-quinidine bidirectional transport in cyMDR1 cells; details: Inhibition of quinidine transport IC50±SD, cyMDR1, probe 3H-quinidine 0.1 µM, 60 min; IC50 from ER
rat Mdr1a [4] = molecular target: T3, rat Mdr1a (Rattus norvegicus, UniProt Q6PSM0); experiment: Inhibition of 3H-digoxin or 3H-quinidine bidirectional transport in rMDR1 cells; assay type: cell-based; set-up: rat Mdr1a (NM_133401.1); expressed in transfected cells; host or cells: Abcb1KO-MDCKII (canine kidney, endogenous Abcb1 knocked out), transduced, single-cell clone; details: IC50 from ER
T3 sequence (Q6PSM0 1-1272): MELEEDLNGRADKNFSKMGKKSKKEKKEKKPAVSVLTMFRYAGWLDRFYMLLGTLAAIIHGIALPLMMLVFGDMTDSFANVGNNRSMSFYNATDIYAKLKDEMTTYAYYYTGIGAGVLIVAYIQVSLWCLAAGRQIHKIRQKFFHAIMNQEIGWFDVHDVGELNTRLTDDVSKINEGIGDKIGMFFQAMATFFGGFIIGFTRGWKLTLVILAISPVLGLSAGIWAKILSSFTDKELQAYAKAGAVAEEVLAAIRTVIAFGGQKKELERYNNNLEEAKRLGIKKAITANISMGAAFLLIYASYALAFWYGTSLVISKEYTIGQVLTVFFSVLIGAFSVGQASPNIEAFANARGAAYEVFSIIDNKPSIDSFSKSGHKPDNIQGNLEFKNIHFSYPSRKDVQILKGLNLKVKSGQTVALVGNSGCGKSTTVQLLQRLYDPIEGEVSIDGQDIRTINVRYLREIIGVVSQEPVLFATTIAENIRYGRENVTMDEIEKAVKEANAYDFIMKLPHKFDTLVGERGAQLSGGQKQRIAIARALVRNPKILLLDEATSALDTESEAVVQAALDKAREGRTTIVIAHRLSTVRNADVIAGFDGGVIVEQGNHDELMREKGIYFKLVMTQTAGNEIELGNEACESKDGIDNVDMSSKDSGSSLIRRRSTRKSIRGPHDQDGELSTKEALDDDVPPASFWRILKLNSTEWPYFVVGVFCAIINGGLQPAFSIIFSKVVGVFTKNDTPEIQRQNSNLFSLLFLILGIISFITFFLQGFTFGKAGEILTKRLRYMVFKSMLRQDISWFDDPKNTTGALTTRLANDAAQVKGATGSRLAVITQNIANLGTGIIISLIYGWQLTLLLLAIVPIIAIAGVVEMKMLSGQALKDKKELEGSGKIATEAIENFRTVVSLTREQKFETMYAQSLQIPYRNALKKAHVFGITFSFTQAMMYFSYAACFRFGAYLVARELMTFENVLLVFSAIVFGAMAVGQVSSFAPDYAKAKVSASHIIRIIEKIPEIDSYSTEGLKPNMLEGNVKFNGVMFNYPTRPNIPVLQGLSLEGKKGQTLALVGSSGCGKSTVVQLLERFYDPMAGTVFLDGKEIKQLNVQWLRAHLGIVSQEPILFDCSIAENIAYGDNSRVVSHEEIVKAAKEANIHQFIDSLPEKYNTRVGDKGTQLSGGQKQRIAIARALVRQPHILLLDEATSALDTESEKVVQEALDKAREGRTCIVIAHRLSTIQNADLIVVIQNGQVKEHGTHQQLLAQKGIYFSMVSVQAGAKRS

mouse Mdr1a [5] = molecular target: T4, mouse Mdr1a (Mus musculus, UniProt P21447); experiment: Inhibition of 3H-digoxin or 3H-quinidine bidirectional transport in mMDR1 cells; assay type: cell-based; set-up: mouse Mdr1a (NM_011076.3); expressed in transfected cells; host or cells: Abcb1KO-MDCKII (canine kidney, endogenous Abcb1 knocked out), transduced, single-cell clone; details: IC50 from ER
T4 sequence (P21447 whole entry): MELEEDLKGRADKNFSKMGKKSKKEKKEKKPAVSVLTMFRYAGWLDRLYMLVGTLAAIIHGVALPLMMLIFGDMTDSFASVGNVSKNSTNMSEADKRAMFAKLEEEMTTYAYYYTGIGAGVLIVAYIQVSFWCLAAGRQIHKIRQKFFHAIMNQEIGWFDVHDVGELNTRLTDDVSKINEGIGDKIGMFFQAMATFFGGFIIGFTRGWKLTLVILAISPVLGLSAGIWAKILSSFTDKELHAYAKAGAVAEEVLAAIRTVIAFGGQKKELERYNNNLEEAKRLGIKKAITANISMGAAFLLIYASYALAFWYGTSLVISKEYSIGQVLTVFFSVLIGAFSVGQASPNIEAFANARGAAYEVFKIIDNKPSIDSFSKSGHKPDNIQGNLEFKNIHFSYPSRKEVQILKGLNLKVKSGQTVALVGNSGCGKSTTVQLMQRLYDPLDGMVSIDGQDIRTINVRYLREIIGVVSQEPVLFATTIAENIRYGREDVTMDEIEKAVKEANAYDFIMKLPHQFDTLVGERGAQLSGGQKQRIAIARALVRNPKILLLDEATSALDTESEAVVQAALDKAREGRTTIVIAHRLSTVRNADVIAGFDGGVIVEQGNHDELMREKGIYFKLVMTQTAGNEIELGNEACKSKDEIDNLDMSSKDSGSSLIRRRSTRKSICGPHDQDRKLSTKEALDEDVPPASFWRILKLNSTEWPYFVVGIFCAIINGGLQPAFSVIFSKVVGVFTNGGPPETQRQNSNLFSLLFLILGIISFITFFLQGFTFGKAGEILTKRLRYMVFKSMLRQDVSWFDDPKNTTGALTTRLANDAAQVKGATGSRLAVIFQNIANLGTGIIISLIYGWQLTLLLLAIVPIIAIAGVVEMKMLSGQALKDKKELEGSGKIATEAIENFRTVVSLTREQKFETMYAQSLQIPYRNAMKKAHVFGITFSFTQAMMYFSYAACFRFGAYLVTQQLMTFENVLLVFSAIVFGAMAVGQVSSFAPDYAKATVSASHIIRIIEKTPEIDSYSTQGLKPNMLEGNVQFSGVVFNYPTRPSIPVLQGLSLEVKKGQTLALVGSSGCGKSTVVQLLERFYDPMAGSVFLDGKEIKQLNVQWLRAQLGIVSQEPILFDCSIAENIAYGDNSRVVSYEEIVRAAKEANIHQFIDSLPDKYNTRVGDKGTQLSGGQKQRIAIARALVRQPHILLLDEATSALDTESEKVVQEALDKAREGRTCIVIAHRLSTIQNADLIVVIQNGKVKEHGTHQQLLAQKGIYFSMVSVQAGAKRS

[6] = Bidirectional transport assay, efflux ratio in Abcb1KO-MDCKII-Mock control cells; details: dog, MDCK, pH 7.4
Description: (§1) Eluent A consisted of 0.1% formic acid in water, eluent B consisted of 0.1% formic acid in acetonitrile. Then, 10 µL samples were injected into the HPLC-MS/MS system. Mass spectrometric detection was performed in SRM mode, and ion transitions for each analyte were optimized during method development. Samples were analyzed in pools, with each pool containing three to four analytes.

rat Mdr1a [7] = molecular target: T3, rat Mdr1a; experiment: Bidirectional transport assay, efflux ratio in Abcb1KO-MDCKII rMDR1 cells; details: rat, pH 7.4
Description: as §1

mouse Mdr1a [8] = molecular target: T4, mouse Mdr1a; experiment: Bidirectional transport assay, efflux ratio in Abcb1KO-MDCKII mMDR1 cells; details: mouse, pH 7.4
Description: as §1

cynomolgus monkey Mdr1 [9] = molecular target: T1, cynomolgus monkey Mdr1; experiment: Bidirectional transport assay, efflux ratio in Abcb1KO-MDCKII cyMDR1 cells; details: cynomolgus monkey, pH 7.4
Description: as §1

human BCRP = molecular target: T5, human BCRP (Homo sapiens, UniProt Q9UNQ0); experiment: Bidirectional transport assay, efflux ratio in MDCKII-BCRP cells; details: human, pH 7.4
T5 sequence (Q9UNQ0 1-655): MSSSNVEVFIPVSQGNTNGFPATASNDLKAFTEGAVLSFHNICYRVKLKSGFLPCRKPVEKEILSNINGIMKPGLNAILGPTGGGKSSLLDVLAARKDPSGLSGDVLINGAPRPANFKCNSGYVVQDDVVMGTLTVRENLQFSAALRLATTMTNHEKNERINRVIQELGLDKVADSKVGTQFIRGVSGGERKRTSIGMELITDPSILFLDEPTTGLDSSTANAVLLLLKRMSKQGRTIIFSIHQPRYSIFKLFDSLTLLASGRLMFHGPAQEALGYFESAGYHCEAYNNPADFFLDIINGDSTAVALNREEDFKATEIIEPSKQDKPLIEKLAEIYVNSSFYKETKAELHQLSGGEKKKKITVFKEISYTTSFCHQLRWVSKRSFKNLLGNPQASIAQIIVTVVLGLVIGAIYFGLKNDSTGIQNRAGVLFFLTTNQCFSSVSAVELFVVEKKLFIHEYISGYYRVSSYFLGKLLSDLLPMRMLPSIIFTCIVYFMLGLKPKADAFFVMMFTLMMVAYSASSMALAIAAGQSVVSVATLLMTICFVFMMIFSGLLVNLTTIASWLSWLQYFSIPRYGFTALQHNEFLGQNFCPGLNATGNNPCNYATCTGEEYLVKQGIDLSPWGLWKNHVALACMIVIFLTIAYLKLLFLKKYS
Description: as §1

human MDR1 [10] = molecular target: T2, human MDR1; experiment: Bidirectional transport assay, efflux ratio in Abcb1KO-MDCKII hMDR1 cells; details: human, MDCK-MDR1, pH 7.4
Description: as §1

[11] = Inhibition of digoxin transport IC50±SD, hMDR1, probe 3H-digoxin 1 µM, 120 min
[12] = Inhibition of quinidine transport IC50±SD, hMDR1, probe 3H-quinidine 1 µM, 60 min
[13] = Inhibition of digoxin transport IC50±SD, rMDR1, probe 3H-digoxin 1 µM, 120 min
[14] = Inhibition of quinidine transport IC50±SD, rMDR1, probe 3H-quinidine 1 µM, 30 min
[15] = Inhibition of digoxin transport IC50±SD, mMDR1, probe 3H-digoxin 1 µM, 120 min
[16] = Inhibition of quinidine transport IC50±SD, mMDR1, probe 3H-quinidine 1 µM, 60 min

T1 sequence (Q8HZQ6 1-1283): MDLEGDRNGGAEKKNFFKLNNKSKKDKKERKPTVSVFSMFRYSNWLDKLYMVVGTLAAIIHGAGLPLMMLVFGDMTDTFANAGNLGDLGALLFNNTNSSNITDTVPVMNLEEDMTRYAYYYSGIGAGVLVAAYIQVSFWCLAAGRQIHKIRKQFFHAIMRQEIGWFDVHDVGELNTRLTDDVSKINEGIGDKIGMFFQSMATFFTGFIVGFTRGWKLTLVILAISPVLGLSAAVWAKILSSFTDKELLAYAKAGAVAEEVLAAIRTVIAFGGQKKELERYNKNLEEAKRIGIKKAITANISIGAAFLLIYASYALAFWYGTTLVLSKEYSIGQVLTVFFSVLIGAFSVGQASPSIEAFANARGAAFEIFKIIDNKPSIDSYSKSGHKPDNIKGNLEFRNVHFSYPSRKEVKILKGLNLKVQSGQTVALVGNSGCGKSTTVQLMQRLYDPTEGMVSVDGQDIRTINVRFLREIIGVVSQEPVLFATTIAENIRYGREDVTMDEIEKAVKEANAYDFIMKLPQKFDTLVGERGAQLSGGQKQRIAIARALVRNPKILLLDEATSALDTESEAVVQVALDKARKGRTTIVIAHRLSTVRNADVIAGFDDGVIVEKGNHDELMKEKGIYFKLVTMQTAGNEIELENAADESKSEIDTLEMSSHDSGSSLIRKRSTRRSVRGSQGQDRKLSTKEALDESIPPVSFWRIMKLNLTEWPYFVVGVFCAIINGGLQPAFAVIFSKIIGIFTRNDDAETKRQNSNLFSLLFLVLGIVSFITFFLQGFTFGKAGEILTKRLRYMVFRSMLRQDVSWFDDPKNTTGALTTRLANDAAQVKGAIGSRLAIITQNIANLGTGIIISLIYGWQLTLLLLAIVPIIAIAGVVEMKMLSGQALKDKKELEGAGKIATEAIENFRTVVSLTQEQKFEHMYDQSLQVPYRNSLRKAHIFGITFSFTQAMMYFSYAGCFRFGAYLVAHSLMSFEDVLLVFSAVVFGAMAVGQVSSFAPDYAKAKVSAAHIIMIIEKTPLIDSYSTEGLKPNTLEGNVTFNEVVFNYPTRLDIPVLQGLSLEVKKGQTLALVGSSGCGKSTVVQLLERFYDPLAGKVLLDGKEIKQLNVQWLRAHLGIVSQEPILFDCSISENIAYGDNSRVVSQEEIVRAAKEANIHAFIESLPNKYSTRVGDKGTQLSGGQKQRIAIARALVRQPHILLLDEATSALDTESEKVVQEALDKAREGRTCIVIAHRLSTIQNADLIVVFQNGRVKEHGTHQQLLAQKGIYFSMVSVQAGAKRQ

Structure (SMILES)	IC50 (cynomolgus monkey Mdr1 [1]) [nM]	IC50 (human MDR1 [2]; [11]) [nM]	IC50 (human MDR1 [2]; [12]) [nM]	IC50 (cynomolgus monkey Mdr1 [3]) [nM]	IC50 (rat Mdr1a [4]; [13]) [nM]	IC50 (rat Mdr1a [4]; [14]) [nM]	IC50 (mouse Mdr1a [5]; [15]) [nM]	IC50 (mouse Mdr1a [5]; [16]) [nM]	efflux ratio at 120 min, 1 µM [6]	efflux ratio at 120 min, 1 µM (rat Mdr1a [7])	efflux ratio at 120 min, 1 µM (mouse Mdr1a [8])	efflux ratio at 120 min, 1 µM (cynomolgus monkey Mdr1 [9])	efflux ratio at 120 min, 1 µM (human BCRP)	efflux ratio at 120 min, 1 µM (human MDR1 [10])
Cc1ccccc1C(=O)Nc1ccc(C(=O)N2CCCC(O)c3cc(Cl)ccc32)c(C)c1 (stereo not shown) [Tolvaptan]	6680 ± 1630	> 30000	1280 ± 440	5110 ± 1650	8790 ± 2810	4140 ± 1470	10900 ± 1460	3920 ± 870						
CCCc1nc2c(C)cc(-c3nc4ccccc4n3C)cc2n1Cc1ccc(-c2ccccc2C(=O)O)cc1 [Telmisartan]	4060 ± 1690	15200 ± 5660	1810 ± 870	1550 ± 530	11600 ± 3910	2720 ± 1260	2600 ± 1590	2280 ± 970	0.38 ± 0.06	2.65 ± 0.75	2.2 ± 0.27	3.18 ± 0.63	12.2 ± 0.95	
CCOC(=O)C1=C(C)NC(C)=C(C(=O)OC)C1c1cccc(Cl)c1Cl (stereo not shown) [Felodipine]	12400 ± 5740			50700 ± 19700	> 100000	40600 ± 7710	28600 ± 7950	> 100000						
COc1ccccc1OCCNCC(O)COc1cccc2[nH]c3ccccc3c12 (stereo not shown) [Carvedilol]	1550 ± 590	19100 ± 7450	410 ± 240	1020 ± 790	4220 ± 1000	1010 ± 130	2000 ± 550	1640 ± 900	0.62 ± 0.04	2.13 ± 0.08	1.94 ± 0.21	1.12 ± 0.06	2.38 ± 0.23	14.5 ± 0.62
CCOC(=O)C1=C(C)NC(C)=C(C(=O)OC)C1c1cccc([N+](=O)[O-])c1 (stereo not shown) [Nitrendipine]	3150 ± 1700	> 50000	> 50000	17500 ± 4960	4020 ± 1640	6340 ± 2680	> 50000	15700 ± 5680						
O[C@@H](COc1cccc2ncccc12)CN1CCN([C@@H]2c3ccccc3[C@@H]3[C@H](c4ccccc42)C3(F)F)CC1 [Zosuquidar]	50 ± 20			120 ± 90	600 ± 290	570 ± 210	370 ± 130	490 ± 260						
CCC(C)n1ncn(-c2ccc(N3CCN(c4ccc(OCC5COC(Cn6cncn6)(c6ccc(Cl)cc6Cl)O5)cc4)CC3)cc2)c1=O (stereo not shown) [Itraconazole]	360 ± 190			320 ± 120	4410 ± 1050	150 ± 70	1390 ± 500	480 ± 110						
COc1cc2c(cc1OC)CN(CCc1ccc(NC(=O)c3cccc4c(=O)c5cccc(OC)c5[nH]c34)cc1)CC2 [Elacridar]	90 ± 30			110 ± 80	320 ± 150	60	100 ± 70	200 ± 40						
